Source: patent US20230123334A1, “AMINO LIPID COMPOUND, PREPARATION METHOD THEREFOR, AND APPLICATION THEREOF” (SHENZHEN SHENXIN BIOTECHNOLOGY CO., LTD., priority 2020, published 2023)

Test system: HEK293 cells
Assay: Preliminary screening as DNA vectors, GFP transfection of HEK293 cells
Type: cell-based
Summary of the method: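 First, amino lipid and DOPE were vortexed in sodium acetate buffer (pH 5.6) to form liposomes. Next, these were held with 75 ng EGFP plasmid at room temperature for 30 min. Finally, HEK293 cells were added, cultured at 37° C., Hoechst-stained, and GFP+/total nuclei scored by imaging.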

[1] = amino lipid/DOPE liposome with 75 ng plasmid DNA (psin-EGFP-IRES-Puro), number of GFP-expressing cells divided by total nuclei (Hoechst)

## CCCCCCCCCCCCCNc1nc(NCCCN2CCOCC2)nc(SCCCCCCCCCCC)n1 [S11N13 D8]
[1]
  Absolute DNA transfection efficiency in HEK293 cells: 0.9%

## CCCCCCCCCCCCCCCCSc1nc(NCCCCCCCCCCCC)nc(NCCCN2CCN(C)CC2)n1 [S16N12 D9]
[1]
  Absolute DNA transfection efficiency in HEK293 cells: 11.4%

## CCCCCCCCCCSc1nc(NCCN2CCOCC2)nc(SCCCCCC)n1 [S6S10 D2]
[1]
  Absolute DNA transfection efficiency in HEK293 cells: 8.3%

## CCCCCCCCCCSc1nc(NCCCCCCCCC)nc(NCCN2CCCCC2)n1 [S10N9 D4]
[1]
  Absolute DNA transfection efficiency in HEK293 cells: 2.7%

## CCCCCCCCCCCCCCCCCCNc1nc(NCCCN(C)C)nc(SCCCCCCCCCC)n1 [S10N18 D6]
[1]
  Absolute DNA transfection efficiency in HEK293 cells: 7.8%

## CCCCCCCCCCCCCCSc1nc(NCCCCCCCCC)nc(NCC2CCN(C)CC2)n1 [S14N9 D10]
[1]
  Absolute DNA transfection efficiency in HEK293 cells: 17.6%

## CCCCCCCCCCCCCCCSc1nc(NCCCCCCCCCCCCC)nc(NCCCN2CCN(C)CC2)n1 [S15N13 D9]
[1]
  Absolute DNA transfection efficiency in HEK293 cells: 3.2%

## CCCCCCCCCCCCCNc1nc(NCCCN(C)C)nc(SCCCCCCCC)n1 [S8N13 D6]
[1]
  Absolute DNA transfection efficiency in HEK293 cells: 55.1%

## CCCCCCCCCCCCCCCCCCNc1nc(NCCN2CCN(C)CC2)nc(SCCCCCCCCCC)n1 [S10N18 D5]
[1]
  Absolute DNA transfection efficiency in HEK293 cells: 1.8%

## CCCCCCCCCCCCSc1nc(NCCCCCCC)nc(NCCCN2CCN(C)CC2)n1 [S12N7 D9]
[1]
  Absolute DNA transfection efficiency in HEK293 cells: 0.3%

## CCCCCCCCNc1nc(NCCN2CCOCC2)nc(SCCCCCCC)n1 [S7N8 D2]
[1]
  Absolute DNA transfection efficiency in HEK293 cells: 2.7%

## CCCCCCCCCCCCCCCCCCSc1nc(NCCN2CCOCC2)nc(SCCCCCCC)n1 [S7S18 D2]
[1]
  Absolute DNA transfection efficiency in HEK293 cells: 7.1%

## CCCCCCCCCCCCCCCCNc1nc(NCCN2CCCC2)nc(SCCCCCCCCCCCCCCCC)n1 [S16N16 D3]
[1]
  Absolute DNA transfection efficiency in HEK293 cells: 1.6%

## CCCCCCCCCCCNc1nc(NCCN2CCCCC2)nc(SCCCCCCCC)n1 [S8N11 D4]
[1]
  Absolute DNA transfection efficiency in HEK293 cells: 14.3%

## CCCCCCCCCCCCCCCNc1nc(NCCCN(C)C)nc(SCCCCCCCCCC)n1 [S10N15 D6]
[1]
  Absolute DNA transfection efficiency in HEK293 cells: 9.1%

## CCCCCCCCCCCCCCCCCCNc1nc(NCCN2CCOCC2)nc(SCCCCCCCCCCCCCC)n1 [S14N18 D2]
[1]
  Absolute DNA transfection efficiency in HEK293 cells: 0.0%

## CCCCCCCCCCCCN(CCCCCCCCCCCC)c1nc(NCC2CCN(C)CC2)nc(SCCCCCCCCC)n1 [S9^2N12 D10]
[1]
  Absolute DNA transfection efficiency in HEK293 cells: 1.1%

## CCCCCCCCCCCCCNc1nc(NCCN2CCN(C)CC2)nc(SCCCCCCCCCCC)n1 [S11N13 D5]
[1]
  Absolute DNA transfection efficiency in HEK293 cells: 8.4%

## CCCCCCCCSc1nc(NCCCCCC)nc(NCCN(CC)CC)n1 [S8N6 D7]
[1]
  Absolute DNA transfection efficiency in HEK293 cells: 1.8%

## CCCCCCCCCCCCCCCSc1nc(NCCCCCCCC)nc(NCCN2CCCCC2)n1 [S15N8 D4]
[1]
  Absolute DNA transfection efficiency in HEK293 cells: 3.0%

## CCCCCCCCCCCCCCCCCCNc1nc(NCCCN2CCN(C)CC2)nc(SCCCCCCCCCCCC)n1 [S12N18 D9]
[1]
  Absolute DNA transfection efficiency in HEK293 cells: 0.2%

## CCCCCCCCCSc1nc(NCCCN(C)C)nc(SCCCCCC)n1 [S6S9 D6]
[1]
  Absolute DNA transfection efficiency in HEK293 cells: 7.1%

## CCCCCCCCCCCCCCCSc1nc(NCCCCCCCCCCCC)nc(NCCN2CCOCC2)n1 [S15N12 D2]
[1]
  Absolute DNA transfection efficiency in HEK293 cells: 0.0%

## CCCCCCCCCCCCCNc1nc(NCCN2CCOCC2)nc(SCCCCCCCCCC)n1 [S10N13 D2]
[1]
  Absolute DNA transfection efficiency in HEK293 cells: 4.2%

## CCCCCCCSc1nc(NCCCN2CCOCC2)nc(SCCCCCCC)n1 [S7S7 D8]
[1]
  Absolute DNA transfection efficiency in HEK293 cells: 0.6%

## CCCCCCCCCCCCSc1nc(NCCCCCCCCC)nc(NCCCN2CCOCC2)n1 [S12N9 D8]
[1]
  Absolute DNA transfection efficiency in HEK293 cells: 0.0%

## CCCCCCCCCCCCCCCCCCSc1nc(NCCCCCCCCCCCCCCCC)nc(NCCCN(C)C)n1 [S18N16 D6]
[1]
  Absolute DNA transfection efficiency in HEK293 cells: 0.0%

## CCCCCCCCCCCCCCSc1nc(NCCCCCCCCC)nc(NCCN2CCCC2)n1 [S14N9 D3]
[1]
  Absolute DNA transfection efficiency in HEK293 cells: 30.7%

## CCCCCCCCCCCCCCCCSc1nc(NCCN2CCN(C)CC2)nc(N(CCCCCCCCCCCC)CCCCCCCCCCCC)n1 [S16^2N12 D5]
[1]
  Absolute DNA transfection efficiency in HEK293 cells: 0.0%

## CCCCCCCCCCCCCCSc1nc(NCCCCCCCCCCCCC)nc(NCC2CCN(C)CC2)n1 [S14N13 D10]
[1]
  Absolute DNA transfection efficiency in HEK293 cells: 2.2%

## CCCCCCCCCCCCSc1nc(NCCCCCCCCC)nc(NCCN2CCOCC2)n1 [S12N9 D2]
[1]
  Absolute DNA transfection efficiency in HEK293 cells: 0.0%

## CCCCCCCCCCCCCCSc1nc(NCCCCCCC)nc(NCCN2CCCC2)n1 [S14N7 D3]
[1]
  Absolute DNA transfection efficiency in HEK293 cells: 14.4%

## CCCCCCCCCCCCCCCNc1nc(NCCCN2CCN(C)CC2)nc(SCCCCCCCCCC)n1 [S10N15 D9]
[1]
  Absolute DNA transfection efficiency in HEK293 cells: 4.1%

## CCCCCCCCCCCCN(CCCCCCCCCCCC)c1nc(NCCCCCCCCCCC)nc(NCCN(CC)CC)n1 [Compound N112N12D7]
HEK293 cells, lipid/DOPE liposome with 75 ng plasmid DNA (psin-EGFP-IRES-Puro), number of cells expressing GFP divided by total number of nuclei (Hoechst)
  Absolute DNA transfection efficiency in HEK293 cells: 0.4%

## CCCCCCCCCCCCCNc1nc(NCC2CCN(C)CC2)nc(SCCCCCCCC)n1 [S8N13 D10]
[1]
  Absolute DNA transfection efficiency in HEK293 cells: 18.7%

## CCCCCCCCCCCCCCCCCCSc1nc(NCCCCCCCCCCCCC)nc(NCCN2CCOCC2)n1 [S18N13 D2]
[1]
  Absolute DNA transfection efficiency in HEK293 cells: 0.0%

## CCCCCCCCCCCCCCSc1nc(NCCCCCCC)nc(NCCN2CCN(C)CC2)n1 [S14N7 D5]
[1]
  Absolute DNA transfection efficiency in HEK293 cells: 16.3%

## CCCCCCCCCCCCNc1nc(NCCN2CCN(C)CC2)nc(SCCCCCCCCCC)n1 [S10N12 D5]
[1]
  Absolute DNA transfection efficiency in HEK293 cells: 2.6%

## CCCCCCSc1nc(NCCCN(C)C)nc(SCCCCCC)n1 [S6S6 D6]
[1]
  Absolute DNA transfection efficiency in HEK293 cells: 12.5%

## CCCCCCCCSc1nc(NCCN2CCCC2)nc(SCCCCCCC)n1 [S7S8 D3]
[1]
  Absolute DNA transfection efficiency in HEK293 cells: 9.2%

## CCCCCCCCCCCCCCCCCCNc1nc(NCCCN(C)C)nc(SCCCCCCCCCCCCCCCC)n1 [S16N18 D6]
[1]
  Absolute DNA transfection efficiency in HEK293 cells: 0.0%

## CCCCCCCCCCCCCCCNc1nc(NCCN2CCCCC2)nc(SCCCCCCC)n1 [S7N15 D4]
[1]
  Absolute DNA transfection efficiency in HEK293 cells: 4.9%

## CCCCCCCCCCCCSc1nc(NCCCCCCC)nc(NCCN2CCOCC2)n1 [S12N7 D2]
[1]
  Absolute DNA transfection efficiency in HEK293 cells: 0.1%

## CCCCCCCCCCCCNc1nc(NCCN2CCOCC2)nc(SCCCCCCCCCCC)n1 [S11N12 D2]
[1]
  Absolute DNA transfection efficiency in HEK293 cells: 3.1%

## CCCCCCCCCCCCNc1nc(NCCN(CC)CC)nc(SCCCCCCCCCCCC)n1 [S12N12 D7]
[1]
  Absolute DNA transfection efficiency in HEK293 cells: 3.7%

## CCCCCCCCCCCCNc1nc(NCCN(C)C)nc(SCCCCCCCC)n1 [S8N12 D1]
[1]
  Absolute DNA transfection efficiency in HEK293 cells: 22.1%

## CCCCCCCCCCCCNc1nc(NCCN(C)C)nc(SCCCCCCCCCC)n1 [S10N12 D1]
[1]
  Absolute DNA transfection efficiency in HEK293 cells: 1.8%

## CCCCCCCCCCCCCCCCCCSc1nc(NCCCCCCCCCCCCCCC)nc(NCCN(C)C)n1 [S18N15 D1]
[1]
  Absolute DNA transfection efficiency in HEK293 cells: 0.2%

## CCCCCCCCSc1nc(NCCCCCC)nc(NCCCN2CCN(C)CC2)n1 [S8N6 D9]
[1]
  Absolute DNA transfection efficiency in HEK293 cells: 2.2%

## CCCCCCCCCSc1nc(NCC2CCN(C)CC2)nc(SCCCCCCC)n1 [S7S9 D10]
[1]
  Absolute DNA transfection efficiency in HEK293 cells: 16.3%

## CCCCCCCCCCCCSc1nc(NCC2CCN(C)CC2)nc(N(CCCCCCCCCCCC)CCCCCCCCCCCC)n1 [S12^2N12 D10]
[1]
  Absolute DNA transfection efficiency in HEK293 cells: 0.1%

## CCCCCCCCCCCNc1nc(NCCN2CCCC2)nc(SCCCCCCC)n1 [S7N11 D3]
[1]
  Absolute DNA transfection efficiency in HEK293 cells: 25.3%

## CCCCCCCCCCCCCCCCCCNc1nc(NCC2CCN(C)CC2)nc(SCCCCCC)n1 [S6N18 D10]
[1]
  Absolute DNA transfection efficiency in HEK293 cells: 13.0%
